Results taken from ChEMBL document CHEMBL4673350 (Bioorg Med Chem, 2021).
In brackets after ≈: the same amount, converted by molar mass.

Assays:
[1] = Inhibition of recombinant N-terminal His/MBP-tagged NDM-1 (unknown origin) expressed in Escherichia coli BL21 (DE3) measured immediately by spectrophotometry
[2] = test system: Escherichia coli DH5[alpha]; assay: Inhibition of Escherichia coli DH5alpha NDM-1 assessed as MIC of meropenem at 8 mg/L by CLSI based microdilution method
[3] = test system: Escherichia coli DH5[alpha]; details: dose 32.0 mg/L
Escherichia coli = assay: microbe, parasite or virus in culture; details: DH5[alpha]
Description: Antibacterial activity against Escherichia coli DH5alpha assessed as MIC of meropenem at 32 mg/L by CLSI based broth microdilution method (Rvb < 0.25 mg/L)

IC50 [1] [µM]	MIC [2] [µg/mL]	MIC [3] [µg/mL]	MIC (Escherichia coli) [µg/mL]	Structure (SMILES)
> 300				C[C@H](CS)C(=O)N1Cc2ccccc2C[C@@H]1C(=O)O
11.1				C[C@H](CS)C(=O)N1CCC(C(N)=O)CC1
28.4				C[C@H](CS)C(=O)N1CCC[C@H](C(=O)O)C1
6.9	4	2 (≈ 8.65 µM)		C[C@H](CS)C(=O)N1CCCC[C@@H]1C(=O)O
19.8				C[C@H](CS)C(=O)N1CCC(CC(=O)O)CC1
4.9	4	2 (≈ 8.65 µM)		C[C@H](CS)C(=O)N1CCC(C(=O)O)CC1
	< 0.25	< 0.25	< 0.25	O=C(O)CN(CCN(CC(=O)O)CC(=O)O)CC(=O)O [EDETIC ACID]
20.4				C[C@H](CS)C(=O)N1CCCCC[C@@H]1C(=O)O
27.9				C[C@H](CS)C(=O)N1CCC(CC(N)=O)CC1
4.6	8	4 (≈ 14.3 µM)		C[C@H](CS)C(=O)N1CCc2ccccc2[C@@H]1C(=O)O
75				O=C(O)[C@H]1CCCN1C(=O)C(CS)CS
21.8		4 (≈ 18.4 µM)		C[C@H](CS)C(=O)N1CCC[C@@H]1C(=O)O [D-CAPTOPRIL]
